In the NIST ThermoML archive (doi:10.1016/j.fluid.2011.12.007):
± gives the expanded uncertainty stated by the source.

Key:
[1] = for mass density: 101.33 kPa, Liquid, Vibrating tube method; for surface tension liquid-gas: Maximal bubble pressure
[2] = refractive index (Na D-line) (dimensionless); conditions: 298.15 K; 101.33 kPa; Liquid; Standard Abbe refractometry
[3] = xn = mol fraction of the nth substance listed; conditions: 303.15 K, Maximal bubble pressure
[4] = Boiling temperature at pressure P; conditions: 101.33 kPa; Liquid; Ebulliometric method (Recirculating still)

## CCCCCC [hexane]
[1]; 298.15 K
  mass density: 655.19 ± 0.17 kg/m3
[2]
  refractive index: 1.37374 ± 0.00031

## CCCCCC [hexane] + C1CCOCC1
[3]; x1 = 1
  surface tension liquid-gas: 17.4 ± 0.25 mN/m

## C1CCOCC1 [tetrahydropyran]
[1]; 283.15 K
  surface tension liquid-gas: 29.61 ± 0.28 mN/m
[1]; 288.15 K
  surface tension liquid-gas: 29.15 ± 0.28 mN/m
[1]; 293.15 K
  surface tension liquid-gas: 28.56 ± 0.28 mN/m
[1]; 298.15 K
  surface tension liquid-gas: 28 ± 0.28 mN/m
  mass density: 879.03 ± 0.09 kg/m3
[1]; 303.15 K
  surface tension liquid-gas: 27.14 ± 0.27 mN/m
[1]; 308.15 K
  surface tension liquid-gas: 26.5 ± 0.27 mN/m
[1]; 313.15 K
  surface tension liquid-gas: 25.55 ± 0.27 mN/m
[1]; 318.15 K
  surface tension liquid-gas: 25.25 ± 0.27 mN/m
[1]; 323.15 K
  surface tension liquid-gas: 24.23 ± 0.27 mN/m
[1]; 328.15 K
  surface tension liquid-gas: 23.6 ± 0.26 mN/m
[1]; 333.15 K
  surface tension liquid-gas: 22.75 ± 0.26 mN/m
[4]
  Boiling temperature at pressure P: 88.21 ± 0.04 °C
[2]
  refractive index: 1.42 ± 0.00031

## C1CCOCC1 [tetrahydropyran] + CCCCCC
[3]; x2 = 0
  surface tension liquid-gas: 27.1 ± 0.27 mN/m
[3]; x2 = 0.045
  surface tension liquid-gas: 26.47 ± 0.27 mN/m
[3]; x2 = 0.09
  surface tension liquid-gas: 25.64 ± 0.27 mN/m
[3]; x2 = 0.181
  surface tension liquid-gas: 24.39 ± 0.27 mN/m
[3]; x2 = 0.282
  surface tension liquid-gas: 23.17 ± 0.26 mN/m
[3]; x2 = 0.383
  surface tension liquid-gas: 22.03 ± 0.26 mN/m
[3]; x2 = 0.487
  surface tension liquid-gas: 21.13 ± 0.26 mN/m
[3]; x2 = 0.589
  surface tension liquid-gas: 20.39 ± 0.26 mN/m
[3]; x2 = 0.674
  surface tension liquid-gas: 19.47 ± 0.25 mN/m
[3]; x2 = 0.786
  surface tension liquid-gas: 18.77 ± 0.25 mN/m
[3]; x2 = 0.899
  surface tension liquid-gas: 18.12 ± 0.25 mN/m
[3]; x2 = 0.964
  surface tension liquid-gas: 17.46 ± 0.25 mN/m
